Consider 6 compounds from paper PMC8154581, “Discovery of Novel Thiophene-arylamide Derivatives as DprE1 Inhibitors with Potent Antimycobacterial Activities” (Journal of Medicinal Chemistry, 2021).

pIC50: −log10 of the molar value. In brackets after ≈: the same amount, converted by molar mass. Several values for one entry are separate records, joined by “and”; a condition that tells them apart may be missing. Equal values may be shown once. Read-outs that look alike come from different tables or passages of the source.

Data set [1] has as its system M. tuberculosis. Also on record: method as in PMID 19299584, PMID 24500695. As to conditions: antimycobacterial activity; cited from earlier work.
Data set [2] concerns the target hERG K+ channel (Homo sapiens, UniProt Q12809). Description: Inhibition of the hERG K+ channel, electrophysiology. In general terms: Block of hERG is tested as a sign of cardiac risk.
Data set [3] has as its target Mt-DprE1 (Mycobacterium tuberculosis, UniProt P9WJF1). It is filed as biochemical, M. tuberculosis.
Data set [4] can be described thus: Pharmacokinetic studies in Balb/c mice. As to conditions: for AUC(0-inf) at 24 h / AUC(0-t) at 24 h / Cmax at 24 h / MRT inf at 24 h / clearance at 24 h / half-life at 24 h / Tmax at 24 h / bioavailability at 24 h: male, Balb/c, mouse, in vivo.
Data set [5] deals with Vero cells. Description: Cytotoxicity assay in Vero cells (MTT). It is filed as cell-based. The conditions noted are these: Chlorocebus sabaeus, 48 h, read-out: IC50 (Vero).
Data set [6] relates to M. tuberculosis (H37Rv) in infected mouse J774A.1 macrophages. It is filed as cell-based.
A short description of data set [7]: Hepatocyte stability assay, mouse. As to conditions: male, mouse hepatocytes.
Data set [8] is described as follows: Hepatocyte stability assay, human. The conditions noted are these: human hepatocytes.
Data set [9] relates to M. tuberculosis H37Rv. As to the kind of experiment: MIC against replicating M. tuberculosis H37Rv, microplate Alamar blue assay (MABA). The conditions noted are these: for MIC: Mycobacterium tuberculosis, H37RV. It is filed as cell-based. Background: Alamar Blue is a resazurin reagent that responds to reducing activity.
Data set [10] is described as follows: Cytotoxicity assay in HepG2 cells (MTT). The conditions noted are these: human.
Data set [11] can be described thus: in vitro. As to conditions: human.
Data set [12] in a line: in vitro. As to conditions: male, mouse, hepatocytes.
A short description of data set [13]: in vitro. The conditions noted are these: human, hepatocytes.
In data set [14] the test system is M. tuberculosis H37Rv. Description: In vivo efficacy in acute TB infection model in Balb/c mice. The conditions noted are these: for log10 CFU/lung: oral, three weeks, INH 25 mg/kg; for Δlog10 CFU: in vivo.
[15] abbreviates: supplementary CSV, same values as Tables 1-3, read-out: Minimal inhibit concentration.
The mark [16] stands for this setting: against M. tuberculosis H37Rv, Tables 1-3, read-out: MIC.

By pIC50 is commonly meant the IC50 on a negative log10 scale, so that one unit is a factor of ten. A low value points to a large IC50. In general, AUC(0-inf) refers to the area under the concentration-time curve extrapolated to infinity. A higher AUC(0-inf) goes with more exposure. The term AUC(0-t) denotes exposure summed from dosing to a finite time, without extrapolation to infinity. Read a high AUC(0-t) as more exposure. For orientation: Cmax means the peak of the concentration-time curve. As usually defined, the MRT inf is a mean duration of stay, worked out from the concentration-time curve. The term clearance denotes the rate of elimination divided by the concentration. High values mean a high capacity for elimination, low ones a low capacity for elimination. A word on the half-life: it is the time in which the quantity being followed falls by half. A low value points to fast loss. Broadly, the Tmax is the time at which the peak concentration occurs. As usually defined, the bioavailability is the share of a dose that reaches the circulation, judged against a reference dose that is usually intravenous. Low values mean poor availability, high ones good availability. As a reminder, the IC50 is the concentration that inhibits the measured activity by half. Usually share remaining stands for the share of the starting amount still present when the sample was taken. Read a low share remaining as a greater loss. Broadly, the melting point is the temperature of the solid-liquid transition.

Chain of Mt-DprE1 (P9WJF1 whole entry, looked up): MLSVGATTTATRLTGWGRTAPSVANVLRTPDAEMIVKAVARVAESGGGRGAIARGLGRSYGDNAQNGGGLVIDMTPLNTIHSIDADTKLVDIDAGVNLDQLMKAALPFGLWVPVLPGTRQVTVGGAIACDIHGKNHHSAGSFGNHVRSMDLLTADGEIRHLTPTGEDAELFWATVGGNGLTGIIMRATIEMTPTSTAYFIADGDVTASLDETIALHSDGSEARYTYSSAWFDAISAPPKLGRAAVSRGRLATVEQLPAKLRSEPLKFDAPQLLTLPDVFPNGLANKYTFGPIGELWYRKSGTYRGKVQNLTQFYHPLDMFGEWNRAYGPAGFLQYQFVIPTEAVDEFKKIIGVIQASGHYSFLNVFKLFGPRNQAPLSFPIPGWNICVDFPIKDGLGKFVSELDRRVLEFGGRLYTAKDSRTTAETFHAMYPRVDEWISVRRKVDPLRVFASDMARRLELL
Chain of hERG K+ channel (Q12809 whole entry): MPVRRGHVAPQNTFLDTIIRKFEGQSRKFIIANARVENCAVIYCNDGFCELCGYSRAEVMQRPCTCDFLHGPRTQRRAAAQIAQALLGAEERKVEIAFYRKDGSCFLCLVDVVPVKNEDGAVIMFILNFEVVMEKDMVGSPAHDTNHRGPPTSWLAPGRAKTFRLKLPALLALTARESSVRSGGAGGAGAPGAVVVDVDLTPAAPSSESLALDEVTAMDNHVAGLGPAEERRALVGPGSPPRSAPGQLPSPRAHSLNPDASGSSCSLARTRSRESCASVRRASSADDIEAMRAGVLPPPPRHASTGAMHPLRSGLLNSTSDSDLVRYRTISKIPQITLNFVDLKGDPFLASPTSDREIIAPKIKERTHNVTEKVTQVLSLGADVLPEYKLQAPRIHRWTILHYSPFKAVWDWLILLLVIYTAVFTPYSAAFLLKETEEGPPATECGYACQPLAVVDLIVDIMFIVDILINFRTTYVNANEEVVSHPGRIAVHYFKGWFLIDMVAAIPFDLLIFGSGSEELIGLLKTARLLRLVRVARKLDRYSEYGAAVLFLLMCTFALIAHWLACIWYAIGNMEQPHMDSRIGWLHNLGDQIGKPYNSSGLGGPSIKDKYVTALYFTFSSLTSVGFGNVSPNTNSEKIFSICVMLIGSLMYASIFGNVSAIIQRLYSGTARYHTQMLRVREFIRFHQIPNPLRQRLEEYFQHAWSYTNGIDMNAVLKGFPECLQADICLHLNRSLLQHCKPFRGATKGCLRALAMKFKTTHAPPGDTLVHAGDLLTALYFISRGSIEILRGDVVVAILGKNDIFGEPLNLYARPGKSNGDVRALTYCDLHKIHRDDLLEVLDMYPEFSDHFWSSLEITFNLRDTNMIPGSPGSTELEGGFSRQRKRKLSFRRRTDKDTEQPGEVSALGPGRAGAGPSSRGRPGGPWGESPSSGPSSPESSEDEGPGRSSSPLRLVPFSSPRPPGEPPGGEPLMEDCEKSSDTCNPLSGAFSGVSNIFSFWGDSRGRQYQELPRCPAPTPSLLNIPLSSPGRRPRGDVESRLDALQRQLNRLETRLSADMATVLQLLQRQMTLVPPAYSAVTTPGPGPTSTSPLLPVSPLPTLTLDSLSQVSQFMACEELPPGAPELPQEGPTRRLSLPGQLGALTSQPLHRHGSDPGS

Consider `C[C@H]1COC2(CCN(c3nc(=O)c4cc(C(F)(F)F)cc([N+](=O)[O-])c4s3)CC2)O1` [BTZ043], for which, in [1], the MICs is less than 0.016 µg/mL.

The compound `CCOC(=O)NC(=O)c1ccsc1NC(=O)c1ccc(C(=O)N2CCCCC2)c(F)c1` [Compound 24f, Ethyl (2-(3-Fluoro-4-(piperidine-1-carbonyl)benzamido)thiophene-3-carbonyl)carbamate] came in with a melting point of 186 to 187 °C. For the same compound, in data set [2], the pIC50 was less than 4.52. Further, the “IC50 DprE1” value in [3] came out at 0.2 ± 0.04 µg/mL (≈ 0.447 µM). For the same compound, in data set [4] (iv, 5 mg/kg), the AUC(0-inf) at 24 h was determined as 184 ng·h/mL, the AUC(0-t) at 24 h was found to be 183 ng·h/mL, the concentration peaked (Cmax at 24 h) at 1300 ng/mL and the MRT inf at 24 h amounted to 7.8 min. In [4] (iv, 5 mg/kg), this compound had a clearance at 24 h of 479 mL/min/kg and a half-life at 24 h of 7.8 min. In data set [4] (po, 50 mg/kg), this compound yielded an AUC(0-inf) at 24 h of 57.9 ng·h/mL, an AUC(0-t) at 24 h of 41.9 ng·h/mL, a Cmax at 24 h of 25.4 ng/mL and an MRT inf at 24 h of 126 min. Also, in [4] (po, 50 mg/kg), the Tmax at 24 h turned out to be 60 min, the bioavailability at 24 h worked out at 2.3% and the half-life at 24 h was 102 min. In addition, the IC50 in data set [5] (Vero cells) is more than 64 µg/mL. Besides, in [6], the “log10 CFU/macrophages” value was 4.18 ± 0.04 log10 CFU and 4.41 ± 0.10 log10 CFU. In data set [7], this compound had a half-life at 1 µM of 43.7 min and a share remaining at 0.5 h, 1 µM of 62.1%. In [8], the half-life at 1 µM was 38.1 min and the amount remaining at 0.5 h, 1 µM was 58%. Also, the “MIC H37Rv” value in data set [9] (H37Rv, Table 4) is 0.020 µg/mL (≈ 0.0447 µM). Moreover, in [9] (against M. tuberculosis H37Rv, Tables 1-3), the MIC was less than 0.016 µg/mL. The MIC in data set [9] (setting [15]) was less than 0.016 µg/mL. For the same compound, in data set [9] (Table 4, read-out: MIC H37Rv), the MIC lay within 0.02 to 0.12 µg/mL (≈ 0.0447 to 0.268 µM). This compound also displayed an IC50 at 48 h in [10] of more than 64 µg/mL.

As for `CCOC(=O)NC(=O)c1ccsc1NC(=O)c1ccc(C(=O)N2CCCCC2)s1` [Compound 24j, Ethyl (2-(5-(Piperidine-1-carbonyl)thiophene-2-carboxamido)thiophene-3-carbonyl)carbamate], the melting point is 175 to 176 °C. The pIC50 in data set [2] is 4.55. For the same compound, in [11], the IC50 was more than 64 µg/mL. Moreover, in [3], the “IC50 DprE1” value came to 0.3 ± 0.1 µg/mL (≈ 0.689 µM). Besides, in [12], the half-life at 1 µM worked out at 19.3 min and the amount remaining at 0.5 h, 1 µM turned out to be 34%. In data set [13], this compound had a half-life at 1 µM of 72.5 min and a fraction remaining at 0.5 h, 1 µM of 75.1%. Besides, the IC50 in data set [5] (Vero) is more than 64 µg/mL. For the same compound, in data set [9] (setting [16]), the MIC was determined as 0.14 µg/mL (≈ 0.321 µM). For the same compound, in [9] (setting [15]), the MIC is 0.14 µg/mL (≈ 0.321 µM). Further, the MIC in [9] (Table 4, read-out: MIC H37Rv) was 0.059 µg/mL (≈ 0.135 µM).

In turn, `COC(=O)NC(=O)c1ccsc1NC(=O)c1ccc(C(=O)N2CCCCC2)cc1` [Compound 25a, Methyl (2-(4-(Piperidine-1-carbonyl)benzamido)thiophene-3-carbonyl)carbamate] gave a pIC50 in data set [2] of 4.65. Further, in [3], the “IC50 DprE1” value came out at 0.9 ± 0.2 µg/mL (≈ 2.17 µM). In data set [4] (iv, 5 mg/kg), the AUC(0-inf) at 24 h came to 833 ng·h/mL, the AUC(0-t) at 24 h came out at 830 ng·h/mL, the Cmax at 24 h turned out to be 4560 ng/mL and the MRT inf at 24 h is 12 min. In data set [4] (iv, 5 mg/kg), this compound showed a clearance at 24 h of 101 mL/min/kg and a half-life at 24 h of 15.6 min. In data set [4] (po, 50 mg/kg), the AUC(0-inf) at 24 h stood at 657 ng·h/mL, the AUC(0-t) at 24 h was found to be 651 ng·h/mL, the highest level (Cmax at 24 h) was 486 ng/mL and the MRT inf at 24 h was determined as 66 min. In [4] (po, 50 mg/kg), the Tmax at 24 h is 34.8 min, the bioavailability at 24 h was determined as 7.9% and the half-life at 24 h was 51 min. Further, the IC50 in data set [5] (Vero cells) was more than 64 µg/mL. Also, in data set [14] (first column (batch with 25a; untreated 6.44), 25a 100 mg/kg), the “log10 CFU/lung” value was found to be 4.42 ± 0.45 log10 CFU. Further, the “Δlog10 CFU” value in data set [14] is on record as 2.02 log10 CFU. For the same compound, in data set [6], the “log10 CFU/macrophages” value is 4.77 ± 0.10 log10 CFU and 5.06 ± 0.03 log10 CFU; the “Δlog10 CFU” value is 0.75 log10 CFU and 0.46 log10 CFU. In data set [7], this compound showed a half-life at 1 µM of 27.1 min and a fraction remaining at 0.5 h, 1 µM of 46.5%. In data set [8], this compound displayed a half-life at 1 µM of 20.3 min and a share remaining at 0.5 h, 1 µM of 35.9%. In addition, in [9] (setting [16]), the MIC is 0.19 µg/mL (≈ 0.457 µM). In data set [9] (setting [15]), the MIC came to 0.19 µg/mL (≈ 0.457 µM). Further, the IC50 at 48 h in data set [10] is more than 64 µg/mL.

For the compound `O=c1nc(N2CCN(CC3CCCCC3)CC2)sc2c([N+](=O)[O-])cc(C(F)(F)F)cc12` [PBTZ169], the MICs in data set [1] is less than 0.016 µg/mL. Further, the MIC in [9] (Table 4, read-out: MIC H37Rv) stood at 0.0001 µg/mL (≈ 0.000219 µM).

The compound `CCOC(=O)NC(=O)c1ccsc1NC(=O)c1nc2ccccc2s1` [TCA1, reference compound] gave a negative logarithm of the IC50 (pIC50) in data set [2] of 4.74. Also, the “IC50 DprE1” value in data set [3] was determined as 0.1 ± 0.01 µg/mL (≈ 0.266 µM). The “enhancement of oral bioavailability relative to 25a” value in data set [4] (Balb/c mice) amounted to 5 fold. In [4] (iv, 5 mg/kg), this compound had an AUC(0-inf) at 24 h of 7910 ng·h/mL, an AUC(0-t) at 24 h of 7910 ng·h/mL, a Cmax at 24 h of 14300 ng/mL and an MRT inf at 24 h of 23.4 min. In data set [4] (iv, 5 mg/kg), the clearance at 24 h was found to be 10.6 mL/min/kg and the half-life at 24 h was 28.2 min. In data set [4] (po, 50 mg/kg), this compound had an AUC(0-inf) at 24 h of 33700 ng·h/mL, an AUC(0-t) at 24 h of 33700 ng·h/mL, a Cmax at 24 h of 10600 ng/mL and an MRT inf at 24 h of 172 min. Further, in data set [4] (po, 50 mg/kg), the Tmax at 24 h came to 60 min, the bioavailability at 24 h was determined as 42.6% and the half-life at 24 h was 131 min. In addition, the 50% inhibitory concentration (IC50) in [5] (Vero cells) was found to be 31.8 µg/mL (≈ 84.6 µM). In addition, the “Δlog10 CFU” value in data set [14] is on record as 2.86 log10 CFU. Further, the “log10 CFU/lung” value in data set [14] (second column (another batch, with TCA1; untreated 7.10), TCA1 100 mg/kg) turned out to be 4.24 ± 0.25 log10 CFU. Further, in data set [7], the half-life at 1 µM stood at 85.3 min and the share remaining at 0.5 h came out at 74.8%. In [8], this compound had a half-life at 1 µM of 5.97 min and a share remaining at 0.5 h, 1 µM of 3.1%. Besides, the MIC in [9] (setting [16]) turned out to be 0.48 µg/mL (≈ 1.28 µM). In data set [9] (Table 4, read-out: MIC H37Rv), the MIC amounted to 0.47 µg/mL (≈ 1.25 µM). The same compound gave an IC50 at 48 h in [10] of 46.1 µg/mL (≈ 123 µM).
